Assay results from US6800674B2, “Anthraquinone compound and water-based ink-jet recording ink containing the compound” (Mitsui Chemicals, Inc., priority 2000, dated 2004).

How the values were obtained:
Assay type in all cases: physicochemical
[1] = Evaluation of light fastness (xenon fadeometer, OD2); conditions: aqueous ink, ink production process Example 1; OD2 after 100 hours of irradiation
Experimental: (§1) Glycerin and water were added to the dispersion (A) of colored resin fine particles to obtain aqueous ink having a solid content of 15% by weight. This aqueous ink was used, and filled in an ink cartridge for a piezo-type ink jet printer, and printing and image recording were conducted with the same printer. The test was conducted on the following items.
(E) Evaluation of Light Fastness
Printing density (OD value) was measured using a xenon fadeometer (manufactured by Suga Shikenki) before irradiation and after 100 hours of irradiation. Light fastness was evaluated upon comparing OD2.
OD2=(OD value after irradiation)/(OD value before irradiation)×100[%]

[2] = Evaluation of water resistance (OD1 after/before dipping in water); conditions: aqueous ink, OD1 after dipping in water and air-drying
Experimental: as §1
(D) Evaluation of Water Resistance
With respect to a printed portion of a plain paper having a recorded image thereon for test, printing density (OD value) was measured with a reflection densitometer before dipping in water and after dipping in water and air-drying. Water resistance was evaluated upon comparing OD1.
OD1=(OD value after dipping in water and air-drying)/(OD value before dipping in water)×100[%]

[3] = Evaluation of light fastness (xenon fadeometer, OD2); conditions: aqueous ink, ink production process Example 2; OD2 after 100 hours of irradiation
[4] = ink production process Example 1
[5] = ink production process Example 2

E (Evaluation of light fastness) [1]	D (Evaluation of water resistance) [2, 4]	E (Evaluation of light fastness) [3]	D (Evaluation of water resistance) [2, 5]	SMILES
◯ (OD value is 70 to less than 80%.)	◯ (OD value is 70 to less than 80%.)	–	–	CCCCC(CC)COC(=O)CSc1ccccc1Oc1cc(O)c2c(c1N)C(=O)c1ccccc1C2=O (stereo not drawn) [compound 28]
Δ (OD value is 50 to less than 70%.)	◯ (OD value is 70 to less than 80%.)	–	–	CCCCC(CC)COC(=O)CCSc1cc(O)c2c(c1N)C(=O)c1ccccc1C2=O (stereo not drawn) [compound 29]
Δ (OD value is 50 to less than 70%.)	◯ (OD value is 70 to less than 80%.)	–	–	CCCCC(CC)COC(=O)CSc1cc(O)c2c(c1N)C(=O)c1ccccc1C2=O (stereo not drawn) [compound 30]
Δ (OD value is 50 to less than 70%.)	◯ (OD value is 70 to less than 80%.)	–	–	Nc1c(SCCOCCSc2cc(O)c3c(c2N)C(=O)c2ccccc2C3=O)cc(O)c2c1C(=O)c1ccccc1C2=O [compound 31]
Δ (OD value is 50 to less than 70%.)	◯ (OD value is 70 to less than 80%.)	–	–	CCCCOC(=O)CSc1cc(O)c2c(c1N)C(=O)c1ccccc1C2=O [compound 32]
◯ (OD value is 70 to less than 80%.)	◯ (OD value is 70 to less than 80%.)	–	–	CCCCC(CC)C(=O)Nc1ccccc1Oc1cc(O)c2c(c1N)C(=O)c1ccccc1C2=O (stereo not drawn) [compound 33]
◯ (OD value is 70 to less than 80%.)	◯ (OD value is 70 to less than 80%.)	–	–	CCCCC(CC)C(=O)Nc1cccc(Oc2cc(O)c3c(c2N)C(=O)c2ccccc2C3=O)c1 (stereo not drawn) [compound 34]
◯ (OD value is 70 to less than 80%.)	◯ (OD value is 70 to less than 80%.)	–	–	Nc1c(Oc2ccccc2NC(=O)c2ccccc2)cc(O)c2c1C(=O)c1ccccc1C2=O [compound 35]
◯ (OD value is 70 to less than 80%.)	◯ (OD value is 70 to less than 80%.)	–	–	CCCCN(CCCC)c1cccc(CCOc2cc(O)c3c(c2N)C(=O)c2ccccc2C3=O)c1 [compound 36]
◯ (OD value is 70 to less than 80%.)	◯ (OD value is 70 to less than 80%.)	–	–	Nc1c(Oc2cccc(C(F)(F)F)c2)cc(O)c2c1C(=O)c1ccccc1C2=O [compound 37]
◯ (OD value is 70 to less than 80%.)	◯ (OD value is 70 to less than 80%.)	–	–	CCCCCCCCCc1ccc(Oc2cc(O)c3c(c2N)C(=O)c2ccccc2C3=O)cc1 [compound 38]
◯ (OD value is 70 to less than 80%.)	◯ (OD value is 70 to less than 80%.)	–	–	CCCCC(CC)C(=O)Oc1ccc(Oc2cc(O)c3c(c2N)C(=O)c2ccccc2C3=O)cc1 (stereo not drawn) [compound 39]
◯ (OD value is 70 to less than 80%.)	◯ (OD value is 70 to less than 80%.)	–	–	CCCCC(CC)COC(=O)CSc1ccc(Oc2cc(O)c3c(c2N)C(=O)c2ccccc2C3=O)cc1 (stereo not drawn) [compound 40]

The remaining lines, values behind:

SMILES	E (Evaluation of light fastness) [1]	D (Evaluation of water resistance) [2, 4]	E (Evaluation of light fastness) [3]	D (Evaluation of water resistance) [2, 5]
CCCCCCCCN(CCCCCCCC)c1cccc(Oc2cc(O)c3c(c2N)C(=O)c2ccccc2C3=O)c1 [Coloring matter No. 1]	⊚⊚ (OD value is 90 to 100%.)	⊚⊚ (OD value is 90 to 100%.)	–	–
Nc1ccccc1Oc1cc(O)c2c(c1N)C(=O)c1ccccc1C2=O [compound 4]	◯ (OD value is 70 to less than 80%.)	⊚ (OD value is 80 to less than 90%.)	◯ (OD value is 70 to less than 80%.)	⊚ (OD value is 80 to less than 90%.)
CN(C)c1cccc(Oc2cc(O)c3c(c2N)C(=O)c2ccccc2C3=O)c1 [compound 5]	⊚ (OD value is 80 to less than 90%.)	⊚⊚ (OD value is 90 to 100%.)	⊚ (OD value is 80 to less than 90%.)	⊚⊚ (OD value is 90 to 100%.)
CCNc1cccc(Oc2cc(O)c3c(c2N)C(=O)c2ccccc2C3=O)c1 [compound 6]	⊚ (OD value is 80 to less than 90%.)	⊚⊚ (OD value is 90 to 100%.)	◯ (OD value is 70 to less than 80%.)	⊚⊚ (OD value is 90 to 100%.)
CCN(CC)c1cccc(Oc2cc(O)c3c(c2N)C(=O)c2ccccc2C3=O)c1 [compound 7]	⊚ (OD value is 80 to less than 90%.)	⊚⊚ (OD value is 90 to 100%.)	⊚ (OD value is 80 to less than 90%.)	⊚⊚ (OD value is 90 to 100%.)
CCCN(CCC)c1cccc(Oc2cc(O)c3c(c2N)C(=O)c2ccccc2C3=O)c1 [compound 8]	⊚⊚ (OD value is 90 to 100%.)	⊚⊚ (OD value is 90 to 100%.)	⊚⊚ (OD value is 90 to 100%.)	⊚⊚ (OD value is 90 to 100%.)
CCCCCCN(CCCCCC)c1cccc(Oc2cc(O)c3c(c2N)C(=O)c2ccccc2C3=O)c1 [compound 10]	⊚⊚ (OD value is 90 to 100%.)	⊚⊚ (OD value is 90 to 100%.)	⊚⊚ (OD value is 90 to 100%.)	⊚⊚ (OD value is 90 to 100%.)
CCCC(C)N(c1cccc(Oc2cc(O)c3c(c2N)C(=O)c2ccccc2C3=O)c1)C(C)CCC (stereo not drawn) [compound 11]	⊚⊚ (OD value is 90 to 100%.)	⊚⊚ (OD value is 90 to 100%.)	⊚⊚ (OD value is 90 to 100%.)	⊚⊚ (OD value is 90 to 100%.)
Nc1c(Oc2ccc(C(c3ccccc3)c3ccccc3)cc2)cc(O)c2c1C(=O)c1ccccc1C2=O [compound 12]	◯ (OD value is 70 to less than 80%.)	⊚ (OD value is 80 to less than 90%.)	◯ (OD value is 70 to less than 80%.)	⊚ (OD value is 80 to less than 90%.)
CCN(CC)c1cccc(Oc2cc(O)c3c(c2N)C(=O)c2cc(C)ccc2C3=O)c1 [compound 13]	⊚⊚ (OD value is 90 to 100%.)	⊚⊚ (OD value is 90 to 100%.)	⊚⊚ (OD value is 90 to 100%.)	⊚⊚ (OD value is 90 to 100%.)
CCCCN(CCCC)c1cccc(Oc2cc(O)c3c(c2N)C(=O)c2ccc(CC)cc2C3=O)c1 [compound 14]	⊚⊚ (OD value is 90 to 100%.)	⊚⊚ (OD value is 90 to 100%.)	⊚⊚ (OD value is 90 to 100%.)	⊚⊚ (OD value is 90 to 100%.)
CCc1ccc2c(c1)C(=O)c1c(O)cc(Oc3cccc(N(CC)CC)c3)c(N)c1C2=O [compound 15]	⊚ (OD value is 80 to less than 90%.)	⊚⊚ (OD value is 90 to 100%.)	⊚ (OD value is 80 to less than 90%.)	⊚⊚ (OD value is 90 to 100%.)
CCCCC(CC)CC(=O)Nc1ccc(O)cc1Sc1cc(O)c2c(c1N)C(=O)c1ccccc1C2=O (stereo not drawn) [compound 19]	Δ (OD value is 50 to less than 70%.)	◯ (OD value is 70 to less than 80%.)	–	–
CCCCCCCCOC(=O)CSc1cc(O)c2c(c1N)C(=O)c1ccccc1C2=O [compound 20]	Δ (OD value is 50 to less than 70%.)	◯ (OD value is 70 to less than 80%.)	–	–
CCCCCCCCSc1cc(O)c2c(c1N)C(=O)c1ccccc1C2=O [compound 21]	Δ (OD value is 50 to less than 70%.)	◯ (OD value is 70 to less than 80%.)	–	–
Nc1ccccc1Sc1cc(O)c2c(c1N)C(=O)c1ccccc1C2=O [compound 22]	Δ (OD value is 50 to less than 70%.)	◯ (OD value is 70 to less than 80%.)	–	–
Nc1c(Oc2ccccc2)cc(O)c2c1C(=O)c1ccccc1C2=O [compound 23]	Δ (OD value is 50 to less than 70%.)	◯ (OD value is 70 to less than 80%.)	–	–
Cc1cccc(Oc2cc(O)c3c(c2N)C(=O)c2ccccc2C3=O)c1 [compound 24]	◯ (OD value is 70 to less than 80%.)	◯ (OD value is 70 to less than 80%.)	–	–
Cc1ccc(CCCOc2cc(O)c3c(c2N)C(=O)c2ccccc2C3=O)cc1 [compound 25]	◯ (OD value is 70 to less than 80%.)	◯ (OD value is 70 to less than 80%.)	–	–
CCCCC(CC)COC(=O)CSc1cccc(Oc2cc(O)c3c(c2N)C(=O)c2ccccc2C3=O)c1 (stereo not drawn) [compound 26]	◯ (OD value is 70 to less than 80%.)	◯ (OD value is 70 to less than 80%.)	–	–
CCCCCCCCCCCCCCCCCCOC(=O)CSc1cc(O)c2c(c1N)C(=O)c1ccccc1C2=O [compound 27]	Δ (OD value is 50 to less than 70%.)	◯ (OD value is 70 to less than 80%.)	–	–
